Source: patent US7759345B2, “Antitumoral derivatives of ET-743” (priority 2001, dated 2010)
Read-outs that look alike come from different tables or passages of the source.

Experiments:
SK-MEL-28 = assay: Inhibition of cells growth by colorimetric assay (SRB), SK-MEL-28; format: cell-based; details: for GI50 / CC50: Homo sapiens, SK-MEL-28, 48 h; for GI50: read-out: MEL-28 GI50
In short: (§1)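 Growth inhibition is measured by sulforhodamine B staining of TCA-fixed cells after 48 h of compound exposure across 10 to 10^−8 μg/ml. Cells are seeded at 5×10^3 per well and grown drug-free for 18 h beforehand; absorbance at 490 nm yields GI, TGI and LC values.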

MDA-MB-231 = assay: Inhibition of cells growth by colorimetric assay (SRB), MDA-MB-231; format: cell-based; details: for CC50 / GI50: Homo sapiens; for CC50: MDA-MB-231, 48 h, read-out: MB-231 LC50; for GI50: MDA-MB-231, read-out: MB-231 GI50; for GI50 / MB-231 TGI: 48 hours exposure
Method: (§2) 2°.—Inhibition of Cells Growth by Colorimetric Assay.
(§3) A colorimetric type of assay, using sulforhodamine B (SRB) reaction has been adapted for a quantitative measurement of cell growth and viability [following the technique described by Philip Skehan, et al. (1990), New colorimetric cytotoxicity assay for anticancer drug screening, J. Natl. Cancer Inst., 82:1107-1112]
(§4) This form of the assay employs 96 well cell culture microplates of 9 mm diameter (Faircloth, 1988; Mosmann, 1983). Most of the cell lines are obtained from American Type Culture Collection (ATCC) derived from different human cancer types.
(§5) Cells are maintained in RPMI 1640 10% FBS, supplemented with 0.1 g/l penicillin and 0.1 g/l streptomycin sulfate and then incubated at 37° C., 5% CO2 and 98% humidity. For the experiments, cells were harvested from subconfluent cultures using trypsin and resuspended in fresh medium before plating.
(§6) Cells are seeded in 96 well microtiter plates, at 5×10^3 cells per well in aliquots of 195 μl medium, and they are allowed to attach to the plate surface by growing in drug free medium for 18 hours. Afterward, samples are added in aliquots of 5 μl in a ranging from 10 to 10^−8 μg/ml, dissolved in DMSO/EtOH/PBS (0.5:0.5:99). After 48 hours exposure, the antitumor effect are measured by the SRB methodology: cells are fixed by adding 50 μl of cold 50% (wt/vol) trichloroacetic acid (TCA) and incubating for 60 minutes at 4° C. Plates are washed with deionized water and dried. One hundred μl of SRB solution (0.4% wt/vol in 1% acetic acid) is added to each microtiter well and incubated for 10 minutes at room temperature. Unbound SRB is removed by washing with 1% acetic acid. Plates are air dried and bound stain is solubilized with Tris buffer. Optical densities are read on a automated spectrophotometric plate reader at a single wavelength of 490 nm.
(§7) The values for mean+/−SD of data from triplicate wells are calculated. Some parameters for cellular responses can be calculated: GI=growth inhibition, TGI=total growth inhibition (cytostatic effect) and LC=cell killing (cytotoxic effect).
(§8) Obtained results may predict the usefulness of a certain drug as a potential cancer treatment. For this technique, compounds which show GI50 values smaller than 10 μg/ml are selected to continue with further studies. GI50's data allow to predict that not only could a drug be cystostatic, but also it could have a potential in terms of tumor reduction.

DU-145 = assay: Inhibition of cells growth by colorimetric assay (SRB), DU-145; format: cell-based; details: for GI50 / CC50: Homo sapiens, DU-145, 48 h; for GI50: read-out: DU-145 GI50
In short: as §1

A-549 = assay: Inhibition of cells growth by colorimetric assay (SRB), A-549; format: cell-based; details: for GI50 / LC50 (concentration for 50% cell killing): Homo sapiens, A549, 48 h; for GI50: read-out: A-549 GI50
In short: as §1

MCF-7 = assay: Inhibition of cells growth by colorimetric assay (SRB), MCF-7; format: cell-based; details: for CC50 / GI50: Homo sapiens; for CC50: read-out: MCF LC50; for GI50: read-out: MCF GI50
Method: as §2, §3, §4, §5, §6, §7, §8

HT-29 = assay: Inhibition of cells growth by colorimetric assay (SRB), HT-29; format: cell-based; details: for GI50 / LC50 (concentration for 50% cell killing): Homo sapiens, HT-29, 48 h; for GI50: read-out: HT-29 GI50
In short: as §1

A-498 = assay: Inhibition of cells growth by colorimetric assay (SRB), A-498; format: cell-based; details: for A-498 TGI / GI50: 48 hours exposure; for LC50 / GI50: Homo sapiens; for LC50: A498, 48 h, read-out: A-498 LC50; for GI50: A498, read-out: A-498 GI50
Method: as §2, §3, §4, §5, §6, §7, §8

SW620 = assay: Inhibition of cells growth by colorimetric assay (SRB), SW620; format: cell-based; details: for LC50 / GI50: Homo sapiens; for LC50: read-out: SW-620 LC50; for GI50: read-out: SW-620 GI50
Method: as §2, §3, §4, §5, §6, §7, §8

[1] = read-out: MEL-28 LC50, SRB assay, 48 hours exposure
[2] = read-out: DU-145 LC50, SRB assay, 48 hours exposure
[3] = read-out: A-549 LC50, SRB assay, 48 hours exposure
[4] = read-out: HT-29 LC50, SRB assay, 48 hours exposure

From the text for Heart: (§9) Toxicity was asssessed by the methods reported in Toxicology in Vitro, 15 (2001) 571-577, J. Luber Narod et al.: “Evaluation of the use of in vitro methodolodies as tools for screening new compounds for potential in vivo toxicity”.
From the text for Kidney: as §9
From the text for Liver: as §9
From the text for Myelo: as §9
From the text for Skeletal: as §9

| SMILES | Toxicity Data Myelo (Myelo) | Toxicity Data Kidney (Kidney) | CC50 (MDA-MB-231) [nM] | Toxicity Data Skeletal (Skeletal) | CC50 (MCF-7; MCF7, 48 h) [nM] | Toxicity Data Heart (Heart) | Toxicity Data Liver (Liver) | LC50 (A-498) [nM] | LC50 (SW620; SW-620, 48 h) [nM] | GI50 (SK-MEL-28; SRB assay, 48 hours exposure) [nM] | CC50 (SK-MEL-28; [1]) [nM] | MEL-28 TGI (SK-MEL-28; SRB assay, 48 hours exposure) | GI50 (MDA-MB-231; SRB assay) [nM] | MB-231 TGI (MDA-MB-231; SRB assay) | GI50 (DU-145; SRB assay, 48 hours exposure) [nM] | CC50 (DU-145; [2]) [nM] | DU-145 TGI (DU-145; SRB assay, 48 hours exposure) | LC50 (concentration for 50% cell killing) (A-549; [3]) [nM] | A-549 TGI (A-549; SRB assay, 48 hours exposure) | MCF TGI (MCF-7; SRB assay, 48 hours exposure) | further results |
| --- | --- | --- | --- | --- | --- | --- | --- | --- | --- | --- | --- | --- | --- | --- | --- | --- | --- | --- | --- | --- | --- |
| COc1cc2c(cc1O)CCN[C@]21CS[C@@H]2c3c(OC(C)=O)c(C)c4c(c3[C@H](COC1=O)N1C2[C@H]2c3c(cc(C)c(OC)c3OC(=O)OC(C)(C)C)C[C@@H]([C@@H]1O)N2C)OCO4 (stereo partly drawn) [Compound 97] | 1.77E-08 | 1.43E-08 | 34.8 | 4.62E-09 | 11.6 | 9.63E-08 | 1.57E-08 | 9.28 | 9.28 |  |  |  |  |  |  |  |  |  |  |  | GI50 (SK-MEL-28; MEL-28, SRB, 48 hours exposure): 0.348 nM; CC50 (SK-MEL-28; read-out: MEL-28 LC50, MEL-28, SRB, 48 hours exposure): 3.48 nM; MEL-28 TGI (SK-MEL-28; MEL-28, SRB, 48 hours exposure): 9.28E-10; GI50 (MDA-MB-231; MB-231, SRB): 0.348 nM; MB-231 TGI (MDA-MB-231; MB-231, SRB): 6.96E-10; DU-145 TGI (DU-145; DU-145, SRB, 48 hours exposure): 3.48E-10; GI50 (DU-145; DU-145, SRB, 48 hours exposure): 0.232 nM; CC50 (DU-145; read-out: DU-145 LC50, DU-145, SRB, 48 hours exposure): 0.928 nM; A-549 TGI (A-549; A-549, SRB, 48 hours exposure): 9.28E-10; GI50 (A-549; A-549, SRB, 48 hours exposure): 0.348 nM; LC50 (concentration for 50% cell killing) (A-549; read-out: A-549 LC50, A-549, SRB, 48 hours exposure): 3.48 nM; GI50 (MCF-7; MCF7, MCF, SRB, 48 hours exposure): 1.16 nM; MCF TGI (MCF-7; MCF, SRB, 48 hours exposure): 3.48E-09; HT-29 TGI (HT-29; HT-29, SRB, 48 hours exposure): 2.32E-09; GI50 (HT-29): 0.928 nM; LC50 (concentration for 50% cell killing) (HT-29; read-out: HT-29 LC50, HT-29, SRB, 48 hours exposure): 9.28 nM; A-498 TGI (A-498; A-498, SRB): 2.32E-09; GI50 (A-498; A-498, SRB): 0.58 nM; GI50 (SW620; SW-620, SRB, 48 hours exposure): 0.58 nM; SW-620 TGI (SW620; SW-620, SRB, 48 hours exposure): 2.32E-09 |
| COc1cc2c(cc1OC(=O)OC(C)(C)C)CCN[C@]21CS[C@@H]2c3c(OC(=O)OC(C)(C)C)c(C)c4c(c3[C@H](COC1=O)N1C2[C@H]2c3c(cc(C)c(OC)c3O)C[C@@H]([C@@H]1O)N2C)OCO4 (stereo partly drawn) [Compound 173] | 4.98E-06 | 7.09E-08 | 21.7 | 2.49E-06 | 109 | 1.19E-07 | 4.03E-08 | 21.7 | 21.7 | 2.17 | 10.9 | 5.43E-09 | 2.17 | 7.61E-09 | 1.09 | 3.26 | 2.17E-09 | 10.9 | 4.35E-09 | 9.78E-09 | GI50 (A-549): 3.26 nM; GI50 (MCF-7; MCF7, 48 h): 3.26 nM; GI50 (HT-29; SRB assay, 48 hours exposure): 2.17 nM; LC50 (concentration for 50% cell killing) (HT-29; [4]): 9.78 nM; HT-29 TGI (HT-29; SRB assay, 48 hours exposure): 6.52E-09; GI50 (A-498; SRB assay): 2.17 nM; A-498 TGI (A-498; SRB assay): 4.35E-09; GI50 (SW620; SW-620, 48 h): 3.26 nM; SW-620 TGI (SW620; SRB assay, 48 hours exposure): 6.52E-09 |
| COc1cc2c(cc1O)CCN[C@]21CS[C@@H]2c3c(OC)c(C)c4c(c3[C@H](COC1=O)N1C2[C@H]2c3c(cc(C)c(OC)c3O)C[C@@H]([C@@H]1O)N2C)OCO4 (stereo partly drawn) [Compound 182] | 3.19E-08 | 1.26E-08 | 8.17 | 1.49E-08 | 13.6 | 3.95E-08 | 3.98E-09 | 5.45 | 13.6 | 0.409 | 5.45 | 1.36E-09 | 0.272 | 6.81E-10 | 0.272 | 1.09 | 4.09E-10 | 68.1 | 1.36E-09 | 5.45E-09 | GI50 (A-549; SRB assay, 48 hours exposure): 0.409 nM; GI50 (MCF-7; MCF7, SRB assay, 48 hours exposure): 2.72 nM; GI50 (HT-29; SRB assay, 48 hours exposure): 0.272 nM; LC50 (concentration for 50% cell killing) (HT-29; [4]): 1.36 nM; HT-29 TGI (HT-29; SRB assay, 48 hours exposure): 1.09E-09; GI50 (A-498; SRB assay): 0.409 nM; A-498 TGI (A-498; SRB assay): 1.36E-09; GI50 (SW620; SW-620, 48 h): 1.09 nM; SW-620 TGI (SW620; SRB assay, 48 hours exposure): 4.09E-09 |
